From ChEMBL document CHEMBL1153119, “Design and synthesis of orally-active and selective azaindane 5HT2c agonist for the treatment of obesity” (Bioorg Med Chem Lett, 2010)
Blank lines part the entries; values can stand above or below the molecule they belong to. The source made the active and inactive calls. The calls are words filed in the database; no cut-off is given here.

How the values were obtained:
[1] = target: T1, 5-hydroxytryptamine receptor 2C (Homo sapiens, UniProt P28335); assay: Agonist activity against human 5HT2C receptor by FLIPR assay; assay type: functional
T1 sequence (P28335 whole entry): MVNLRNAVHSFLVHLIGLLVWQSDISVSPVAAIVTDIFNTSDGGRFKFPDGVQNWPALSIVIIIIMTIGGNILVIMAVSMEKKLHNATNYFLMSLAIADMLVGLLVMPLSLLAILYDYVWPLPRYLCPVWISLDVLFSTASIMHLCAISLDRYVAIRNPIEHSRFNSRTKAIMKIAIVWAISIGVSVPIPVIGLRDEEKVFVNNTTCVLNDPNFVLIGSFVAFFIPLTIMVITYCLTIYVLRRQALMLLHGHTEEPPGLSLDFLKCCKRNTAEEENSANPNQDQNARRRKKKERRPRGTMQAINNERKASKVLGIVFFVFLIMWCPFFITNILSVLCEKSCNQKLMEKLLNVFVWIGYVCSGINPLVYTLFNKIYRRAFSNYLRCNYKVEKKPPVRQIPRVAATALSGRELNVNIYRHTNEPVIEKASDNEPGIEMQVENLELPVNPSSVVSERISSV

[2] = target: T2, 5-hydroxytryptamine receptor 2C (Homo sapiens) (UniProt P28335); assay: Agonist activity against human 5HT2C receptor by FLIPR assay
T2 sequence (whole entry): T1 sequence (P28335 whole entry)

[3] = target: T1, 5-hydroxytryptamine receptor 2C; assay: Displacement of [3H]5HT from human 5HT2C receptor expressed in mouse 3T3 cells by scintillation counting; assay type: cell-based, NIH3T3
[4] = target: T1, 5-hydroxytryptamine receptor 2C; assay: Antagonist activity against human 5HT2C receptor by FLIPR assay; assay type: functional
[5] = target: T3, 5-hydroxytryptamine receptor 2A (Homo sapiens, UniProt P28223); assay: Agonist activity against human 5HT2A receptor by FLIPR assay; assay type: functional
T3 sequence (P28223 whole entry): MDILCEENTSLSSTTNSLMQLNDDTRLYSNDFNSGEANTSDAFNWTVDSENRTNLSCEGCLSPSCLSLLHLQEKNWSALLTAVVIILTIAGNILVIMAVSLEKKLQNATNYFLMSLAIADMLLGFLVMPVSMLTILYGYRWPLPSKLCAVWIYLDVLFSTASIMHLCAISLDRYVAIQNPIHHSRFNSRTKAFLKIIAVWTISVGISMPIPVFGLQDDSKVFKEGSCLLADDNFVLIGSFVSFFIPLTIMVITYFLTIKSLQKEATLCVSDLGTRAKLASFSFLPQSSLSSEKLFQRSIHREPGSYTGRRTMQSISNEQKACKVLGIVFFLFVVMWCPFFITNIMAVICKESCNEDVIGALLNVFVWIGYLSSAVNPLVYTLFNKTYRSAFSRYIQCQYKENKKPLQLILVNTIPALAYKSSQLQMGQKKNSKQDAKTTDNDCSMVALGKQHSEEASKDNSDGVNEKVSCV

[6] = target: T3, 5-hydroxytryptamine receptor 2A; assay: Agonist activity against human 5HT2A receptor by FLIPR assay relative to 5HT; assay type: functional
[7] = target: T4, 5-hydroxytryptamine receptor 2B (Homo sapiens, UniProt P41595); assay: Agonist activity against human 5HT2B receptor by FLIPR assay relative to 5HT; assay type: functional
T4 sequence (P41595 whole entry): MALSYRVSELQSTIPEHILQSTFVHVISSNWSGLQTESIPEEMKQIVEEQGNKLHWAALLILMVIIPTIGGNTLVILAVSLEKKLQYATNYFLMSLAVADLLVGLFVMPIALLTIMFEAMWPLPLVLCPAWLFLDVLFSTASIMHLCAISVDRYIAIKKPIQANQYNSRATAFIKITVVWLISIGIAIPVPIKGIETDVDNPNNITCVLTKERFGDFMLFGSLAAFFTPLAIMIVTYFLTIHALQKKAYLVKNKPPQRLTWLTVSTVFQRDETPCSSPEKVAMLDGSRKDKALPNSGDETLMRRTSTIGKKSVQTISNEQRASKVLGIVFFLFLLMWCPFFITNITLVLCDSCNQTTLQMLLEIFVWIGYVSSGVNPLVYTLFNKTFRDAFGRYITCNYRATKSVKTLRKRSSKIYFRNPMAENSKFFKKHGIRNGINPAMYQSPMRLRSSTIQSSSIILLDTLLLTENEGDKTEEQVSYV

[8] = target: 5-hydroxytryptamine receptor 2A (Rattus norvegicus, UniProt P14842); assay: Displacement of [125I]DOI from rat 5HT2A receptor expressed in mouse 3T3 cells; assay type: cell-based, NIH3T3
5-hydroxytryptamine receptor 2A (Rattus norvegicus, UniProt P14842), sequence (P14842 whole entry): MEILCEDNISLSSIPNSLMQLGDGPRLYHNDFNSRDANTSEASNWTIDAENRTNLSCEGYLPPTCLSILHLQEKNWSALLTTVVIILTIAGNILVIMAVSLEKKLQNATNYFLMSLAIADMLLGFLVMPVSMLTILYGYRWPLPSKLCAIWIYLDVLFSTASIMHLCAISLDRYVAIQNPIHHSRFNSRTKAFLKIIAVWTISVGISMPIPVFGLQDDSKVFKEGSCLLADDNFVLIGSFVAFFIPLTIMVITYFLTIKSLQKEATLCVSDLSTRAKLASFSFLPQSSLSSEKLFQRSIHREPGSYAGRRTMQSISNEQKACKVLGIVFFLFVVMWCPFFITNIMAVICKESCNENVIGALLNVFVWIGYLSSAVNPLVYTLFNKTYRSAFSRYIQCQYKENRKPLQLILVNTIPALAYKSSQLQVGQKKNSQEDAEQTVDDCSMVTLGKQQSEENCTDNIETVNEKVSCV

[9] = target: T4, 5-hydroxytryptamine receptor 2B; assay: Displacement of [125I]DOI from human 5HT2B receptor expressed in CHO cells; assay type: cell-based
[10] = target: T4, 5-hydroxytryptamine receptor 2B; assay: Agonist activity against human 5HT2B receptor by FLIPR assay; assay type: functional
[11] = target: T1, 5-hydroxytryptamine receptor 2C; assay: Agonist activity against human 5HT2C receptor by GTPgammaS binding; assay type: functional
[12] = target: T2, 5-hydroxytryptamine receptor 2C (Homo sapiens); assay: Agonist activity against human 5HT2C receptor by GTPgammaS binding relative to control; assay type: functional
[13] = target: T2, 5-hydroxytryptamine receptor 2C (Homo sapiens); assay: Agonist activity against human 5HT2C receptor assessed as inositol phosphate accumulation; assay type: functional
[14] = target: T3, 5-hydroxytryptamine receptor 2A; assay: Agonist activity against 5HT2A receptor assessed as inositol phosphate accumulation; assay type: functional
[15] = target: T4, 5-hydroxytryptamine receptor 2B; assay: Agonist activity against 5HT2B receptor assessed as inositol phosphate accumulation; assay type: functional
[16] = target: T3, 5-hydroxytryptamine receptor 2A; assay: Antagonist activity against 5HT2A receptor; assay type: functional
[17] = target: T4, 5-hydroxytryptamine receptor 2B; assay: Antagonist activity against 5HT2B receptor; assay type: functional
[18] = target: Voltage-gated inwardly rectifying potassium channel KCNH2 (Homo sapiens, UniProt Q12809); assay: Inhibition of human ERG channel
Voltage-gated inwardly rectifying potassium channel KCNH2, sequence (Q12809 whole entry): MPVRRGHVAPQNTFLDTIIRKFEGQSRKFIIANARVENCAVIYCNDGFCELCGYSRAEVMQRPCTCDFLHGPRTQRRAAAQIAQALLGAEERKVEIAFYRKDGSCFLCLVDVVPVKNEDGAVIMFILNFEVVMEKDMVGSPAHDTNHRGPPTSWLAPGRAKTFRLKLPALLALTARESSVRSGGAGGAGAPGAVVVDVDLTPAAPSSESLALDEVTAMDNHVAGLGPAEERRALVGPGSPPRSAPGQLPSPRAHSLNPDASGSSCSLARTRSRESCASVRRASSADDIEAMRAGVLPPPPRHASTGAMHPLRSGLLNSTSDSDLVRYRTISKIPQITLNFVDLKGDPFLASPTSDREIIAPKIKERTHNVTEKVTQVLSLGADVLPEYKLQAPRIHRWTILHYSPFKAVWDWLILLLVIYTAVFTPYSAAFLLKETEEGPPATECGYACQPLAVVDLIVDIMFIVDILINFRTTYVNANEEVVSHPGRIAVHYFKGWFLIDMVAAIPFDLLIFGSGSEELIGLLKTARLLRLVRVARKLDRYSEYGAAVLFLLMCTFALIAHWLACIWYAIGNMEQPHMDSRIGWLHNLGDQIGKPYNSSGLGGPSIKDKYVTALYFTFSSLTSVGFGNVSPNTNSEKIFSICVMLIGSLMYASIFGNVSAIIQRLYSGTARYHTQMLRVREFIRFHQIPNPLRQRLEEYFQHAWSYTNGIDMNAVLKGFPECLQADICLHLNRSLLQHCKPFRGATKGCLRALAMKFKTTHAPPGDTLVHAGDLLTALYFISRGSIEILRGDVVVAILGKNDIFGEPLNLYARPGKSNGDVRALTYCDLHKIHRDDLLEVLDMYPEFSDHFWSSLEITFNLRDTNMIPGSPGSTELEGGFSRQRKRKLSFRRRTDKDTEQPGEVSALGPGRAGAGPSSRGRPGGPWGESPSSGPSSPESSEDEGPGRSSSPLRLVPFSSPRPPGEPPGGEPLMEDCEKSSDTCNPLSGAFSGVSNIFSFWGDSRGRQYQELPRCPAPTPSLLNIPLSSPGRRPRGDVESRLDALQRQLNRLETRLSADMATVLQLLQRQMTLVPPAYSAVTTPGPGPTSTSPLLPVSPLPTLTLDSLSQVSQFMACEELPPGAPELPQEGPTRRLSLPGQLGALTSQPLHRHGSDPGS

[19] = test system: Rattus norvegicus; assay: Antiobesity activity in Sprague-Dawley rat model assessed as reduction in food intake at 100 mg/kg, po after 2 hrs; assay type: functional; design: scale not given: the % may be the effect or the level left
[20] = Half life in rat microsomes at 0.3 mM; assay type: ADME, Microsome
[21] = Intrinsic clearance in rat microsomes at 0.3 mM; assay type: ADME, Microsome
[22] = Half life in rat hepatocyte at 1 mM; assay type: ADME, cell-based, Liver; details: hepatocytes
[23] = Intrinsic clearance in rat hepatocyte at 1 mM; assay type: ADME, cell-based, Liver; details: hepatocytes
[24] = Clearance in rat; assay type: ADME, organism-based; details: in vivo
[25] = Half life in dog microsomes at 0.3 mM; assay type: ADME, Canis lupus familiaris, Microsome
[26] = Intrinsic clearance in dog microsomes at 0.3 mM; assay type: ADME, Canis lupus familiaris, Liver, Microsome
[27] = Half life in dog hepatocyte at 1 mM; assay type: ADME, Canis lupus familiaris, Liver; details: hepatocytes
[28] = Intrinsic clearance in dog hepatocyte at 1 mM; assay type: ADME, tissue-based, Canis lupus familiaris, Liver; details: hepatocytes
[29] = Clearance in dog; assay type: ADME, organism-based, Canis lupus familiaris; details: in vivo
[30] = Half life in monkey microsomes at 0.3 mM; assay type: ADME, Macaca mulatta, Microsome; details: rhesus monkey
[31] = Intrinsic clearance in monkey microsomes at 0.3 mM; assay type: ADME, Macaca mulatta, Microsome; details: rhesus monkey
[32] = Half life in monkey hepatocyte at 1 mM; assay type: ADME, Macaca mulatta, Liver; details: rhesus monkey, hepatocytes
[33] = Intrinsic clearance in monkey hepatocyte at 1 mM; assay type: ADME, tissue-based, Macaca mulatta, Liver; details: rhesus monkey, hepatocytes
[34] = Clearance in monkey; assay type: ADME, organism-based, Macaca mulatta; details: rhesus monkey, in vivo
[35] = Half life in human microsomes at 0.3 mM; assay type: ADME, Microsome
[36] = Intrinsic clearance in human microsomes at 0.3 mM; assay type: ADME, Microsome
[37] = Half life in human hepatocyte at 1 mM; assay type: ADME, cell-based, Liver; details: hepatocytes
[38] = Intrinsic clearance in human hepatocyte at 1 mM; assay type: ADME, cell-based, Liver; details: hepatocytes
[39] = Ratio of drug uptake in brain to plasma in rat; assay type: ADME, organism-based; details: in vivo
[40] = Ratio of drug uptake in CSF to plasma in rat; assay type: ADME
[41] = Ratio of drug uptake in CSF to free plasma in rat; assay type: ADME, organism-based; details: in vivo
[42] = target: T2, 5-hydroxytryptamine receptor 2C (Homo sapiens); assay: Antagonist activity against 5HT2c receptor; assay type: functional

Compound: Clc1nc(N2CCNCC2)nc2sccc12
EC50 [1]: 0.616 µM
Activity [2]: 69%

Activity [2]: 31%
Compound: c1ccc2c(c1)sc1c(N3CCNCC3)ncnc12

Compound: Cc1cc2c(N3CCNCC3)ncnc2o1
EC50 [1]: 0.66 µM
Activity [2]: 45%

Compound: c1nc(N2CCNCC2)c2ccsc2n1
EC50 [1]: 0.53 µM
Activity [2]: 74%

Ki [3]: 0.0006 µM
Compound: C[C@@H]1CNCCN1c1ccc2c(n1)[C@@H](Oc1ccccc1Cl)CC2

Compound: CCCn1cnc2c(N3CCNCC3)ncnc21
EC50 [1]: 1.25 µM
Activity [2]: 55%

Compound: c1ccc2c(N3CCNCC3)nccc2c1
IC50 [4]: 0.024 µM

Compound: c1cc2c(nc1N1CCNCC1)CCCC2
EC50 [1]: 0.025 µM
EC50 [5]: 2.2 µM
Activity [6]: 60%
Activity [7]: Active
Ki [8]: 0.021 µM
Ki ([9]; cho): Not Active
Activity [2]: 93%

Compound: Clc1ccccc1O[C@H]1CCc2ccc(N3CCNCC3)nc21
EC50 [1]: 0.0001 µM
EC50 [5]: 0.087 µM
Activity [6]: 87%
EC50 [10]: 0.3 µM
Activity [7]: 58%
Ki [8]: 0.001 µM
Ki ([9]; cho): Not Active
Activity [2]: 92%

Compound: Clc1ccccc1O[C@H]1CCCc2ccc(N3CCNCC3)nc21
EC50 [1]: 0.01 µM
EC50 [5]: 0.07 µM
Activity [6]: 93%
EC50 [10]: 0.397 µM
Ki [8]: 0.0007 µM
Ki ([9]; cho): Not Active
Activity [2]: 97%

Compound: Clc1ccccc1OC1CCc2ccc(N3CCNCC3)nc21 (stereo not given)
EC50 [1]: 0.0001 µM
EC50 [5]: 0.236 µM
Activity [6]: 75%
EC50 [10]: 0.187 µM
Activity [7]: 50%
Ki [8]: 0.0038 µM
Ki ([9]; cho): Not Active
Activity [2]: 93%

IC50 [4]: 0.126 µM
Compound: Cc1csc2c(OCc3cccc(Cl)c3)nc(N3CCNCC3)nc12

IC50 [4]: 0.54 µM
Compound: Clc1nc(N2CCNCC2)c2scc(-c3ccccc3)c2n1

IC50 [4]: 0.41 µM
Compound: Clc1cccc(COc2nc(N3CCNCC3)nc3nc[nH]c23)c1

Compound: c1cc2sccc2c(N2CCNCC2)n1
EC50 [1]: 0.187 µM
Activity [2]: 60%

Compound: Clc1ccccc1O[C@@H]1CCc2ccc(N3CCNCC3)nc21
EC50 [1]: 0.022 µM
EC50 [5]: 1.31 µM
Activity [6]: 46%
EC50 [10]: 0.748 µM
Activity [7]: 21%
Ki [8]: 0.041 µM
Ki ([9]; cho): Not Active
Activity [2]: 97%

Compound: c1nc(N2CCNCC2)c2cc[nH]c2n1
EC50 [1]: 0.755 µM
Activity [2]: 91%

Compound: Clc1ccccc1O[C@@H]1CCCc2ccc(N3CCNCC3)nc21
EC50 [1]: 0.12 µM
EC50 [5]: 0.578 µM
Activity [6]: 76%
EC50 [10]: 0.998 µM
Ki [8]: 0.002 µM
Ki ([9]; cho): Not Active
Activity [2]: 95%

Compound: c1nc(N2CCNCC2)c2sccc2n1
EC50 [1]: 0.4 µM
Activity [2]: 81%

Compound: Cc1ccc(F)cc1CO[C@H]1CCc2ccc(N3CCNC[C@H]3C)nc21
EC50 [1]: 0.0034 µM
IC50 [4]: ≤ 0.086 µM
EC50 [11]: 0.0019 µM
EC50 [5]: 0.63 µM
EC50 [10]: 0.566 µM
Emax [7]: 28%
Ki [8]: 0.0044 µM
Activity [12]: 86%
Activity [13]: inactive
Activity [14]: inactive
EC50 [15]: > 10 µM
Kb [16]: 0.062 µM
Kb [17]: 0.004 µM
IC50 [18]: 3.9 µM
Activity [19]: -74%
half-life [20]: 2.2 min
CLint scaled [21]: 1500 mL/min/kg
half-life [22]: 4.7 min
CLint scaled [23]: 400 mL/min/kg
clearance [24]: 90 mL/min/kg
half-life [25]: 24 min
CLint scaled [26]: 59 mL/min/kg
half-life [27]: 64 min
CLint scaled [28]: 41 mL/min/kg
clearance [29]: 34 mL/min/kg
half-life [30]: 12 min
CLint scaled [31]: 350 mL/min/kg
half-life [32]: 53 min
CLint scaled [33]: 43 mL/min/kg
clearance [34]: 8.6 mL/min/kg
half-life [35]: 44 min
CLint scaled [36]: 20 mL/min/kg
half-life [37]: 170 min
CLint scaled [38]: 5.1 mL/min/kg
ratio [39]: 3.4
Kp [40]: 0.015
ratio [41]: 0.5
Kb [42]: inactive

EC50 [1]: 1.2 µM
Activity [2]: 53%
Compound: Clc1cccc(COc2nc(N3CCNCC3)nc3sccc23)c1

Compound: c1cc2occc2c(N2CCNCC2)n1
EC50 [1]: 0.164 µM
Activity [2]: 67%

Compound: Brc1cn2ccnc2c(N2CCNCC2)n1
EC50 [1]: 1.36 µM
Activity [2]: 79%

Compound: Fc1ccc(F)c(CO[C@H]2CCc3ccc(N4CCNCC4)nc32)c1
EC50 [1]: 0.0014 µM
EC50 [5]: 1.5 µM
Activity [6]: 13%
EC50 [10]: 2.7 µM
Activity [7]: 18%
Ki [8]: 0.015 µM
Ki ([9]; read-out: Ki): 0.153 µM
Activity [2]: 91%

Compound: C[C@@H]1CNCCN1c1ccc2c(n1)[C@@H](OCc1cc(F)ccc1F)CC2
EC50 [1]: 0.001 µM
EC50 [5]: 1.43 µM
Activity [6]: 18%
Ki [8]: 0.016 µM
Ki ([9]; read-out: Ki): 0.083 µM
Activity [2]: 96%

EC50 [1]: 2.6 µM
Activity [2]: 43%
Compound: Clc1cccc(COc2nc(N3CCNCC3)nc3ccsc23)c1

IC50 [4]: 0.71 µM
Compound: Clc1nc(N2CCNCC2)c2c3c(sc2n1)CCCC3

Compound: COc1nc(N2CCNCC2)nc2c1CCCC2
EC50 [1]: 5 µM
Activity [2]: 53%

Compound: Fc1cccc(O[C@H]2CCc3ccc(N4CCNCC4)nc32)c1
Ki [3]: 0.003 µM

Compound: Cn1cnc2nc(OCc3ccccc3)nc(N3CCNCC3)c21
IC50 [4]: > 0.5 µM
